Values quoted from earlier work as cited in patent US20070293698A1, “Compositions of Allosteric Hemoglobin Modifiers and Methods of Making the Same” (ALLOS THERAPEUTICS, INC., priority 2004, published 2007).

Tests used:
[1] = system: EMT6 mouse mammary tumors; details: efaproxiral plus oxygen breathing, Rockwell and Kelley 1998
[2] = system: Lewis lung carcinoma; details: mice bearing the Lewis lung carcinoma; Teicher 1996
[3] = system: mouse fibrosarcoma tumor; details: combination of efaproxiral and radiation relative to radiation alone; Teicher 1996, Khandelwal 1996
[4] = molecular target: hemoglobin (Homo sapiens, UniProt P68871+P69905); details: in vivo
hemoglobin, sequence (P69905 2-142 limits assumed): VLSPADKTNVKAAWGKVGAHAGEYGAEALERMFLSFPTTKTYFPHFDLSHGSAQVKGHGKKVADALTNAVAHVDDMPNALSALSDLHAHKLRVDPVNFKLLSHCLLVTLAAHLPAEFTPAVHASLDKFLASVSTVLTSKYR
hemoglobin, sequence (P68871 2-147 limits assumed): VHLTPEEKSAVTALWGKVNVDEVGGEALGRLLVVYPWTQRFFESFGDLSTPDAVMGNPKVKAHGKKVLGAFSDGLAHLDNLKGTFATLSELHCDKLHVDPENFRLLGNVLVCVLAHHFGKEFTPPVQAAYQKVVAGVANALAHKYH

tissue oxygenation [4]: enhance tissue oxygenation in vivo
SMILES: Cc1cc(C)cc(NC(=O)Cc2ccc(OC(C)(C)C(=O)O)cc2)c1 [efaproxiral, 2-[4-((((3,5-dimethylphenyl)amino)carbonyl)methyl)phenoxy]-2-methyl propionic acid]
effect of radiation in tumors ([1]; EMT6 tumors): Enhancement of the effect of radiation was observed
radiation effects in normal tissues ([1]; normal tissues): absence of enhanced radiation effects in normal tissues
effect on fractionated radiation therapy [2]: enhance fractionated radiation therapy
tumor growth [3]: tumor growth has been shown to be reduced
